Data set [1] is described as follows: Plasma concentration after oral administration of prodrug Compound II-6. The note with it: after oral administration of Compound II-6 to rat under non-fasting conditions, all plasma samples. The format is in vivo. The source says:
FIG. 1 is a result of measuring the plasma concentration of compound III-2, after oral administration of prodrug Compound II-6, the parent compound of which is Compound III-2, to rat under non-fasting conditions.
FIG. 2 is a result of measuring the plasma concentration of compound II-6, after oral administration of prodrug Compound II-6, the parent compound of which is Compound III-2, to rat under non-fasting conditions.
FIGS. 1 and 2 show a result of measuring the plasma concentration of Compound III-2 and Compound II-6 after oral administration of prodrug Compound II-6, the parent compound of which is Compound III-2, to rat under non-fasting conditions.
Therefore, prodrug Compound II-6, the parent compound of which is Compound III-2 is found to have changed promptly to Compound III-2 in vivo after administration (see FIG. 2).

The next data set is described as follows: in vivo. To be noted: oral vs intravenous administration, mice or SD rats, read-out: bioavailability (BA). As to the method: Materials and Methods for Experiments to Evaluate Oral Absorption
(1) Experimental animals: mice or SD rats were used.
(2) Rearing condition: mice or SD rats were allowed free access to solid feed and sterilized tap water.
(3) Setting of dosage and grouping: Oral administration and intravenous administration were performed with the predetermined dosage. Grouping was set as below. (Dosage was changed per compound)
Oral administration 1 to 30 mg/kg (n=2 to 3)
Intravenous administration 0.5 to 10 mg/kg (n=2 to 3)
(4) Preparation of administration solutions: Oral administration was performed as solution or suspension. Intravenous administration was performed after solubilization.
(5) Routes of administration: Oral administration was performed mandatory into the stomach by oral sonde. […]
(6) Evaluation items: Blood was collected serially and concentration of a compound of the present invention in plasma was measured by LC/MS/MS.
(7) Statistical analysis: About transition of concentration of a compound of the present invention in plasma, the area under the plasma concentration versus time curve (AUC) was calculated by non-linear least-squares method program, WinNonlin (a registered trademark), and bioavailability (BA) of a compound of the present invention was calculated from AUCs of the oral administration group and the intravenous administration group. […]

Data set [2] addresses cap-dependent endonuclease (RNP fraction, PB1-PB2-PA complex) (Influenza A virus, UniProt P15659). Nature of the data set: Measurement of cap-dependant endonuclease (CEN) inhibitory activity. The format is biochemical. The note with it: RNP from A/WSN/33 virus, room temperature 60 minutes; read-out: CEN_IC50.
Another data set deals with influenza virus. Kind of data set: CPE inhibitory effect confirming assay. The format is cell-based. The note with it: unidentified influenza virus, 72 h, read-out: CPE_EC50.

Molecules are shown by their SMILES.

As to `COC(=O)OCOc1c2n(ccc1=O)N([C@@H]1c3ccccc3SCc3c1ccc(F)c3F)[C@@H]1COCCN1C2=O` [II-6], the “concentration of Compound II-6 in plasma” value in data set [1] is reported as “a determination limit or less”. Moreover, in “in vivo”, the bioavailability worked out at 14.9%.
Take `C[C@@H]1COC[C@@H]2N1C(=O)c1c(O)c(=O)ccn1N2[C@@H]1c2ccccc2SCc2c1ccc(F)c2F` [III-22]: in data set [2], the IC50 was found to be 3.46 nM. In addition, in the data set with influenza virus, the EC50 was 3.07 nM.
`O=C1c2c(O)c(=O)ccn2N([C@H]2c3ccccc3CSc3ccccc32)[C@@H]2COCCN12` [III-1]: the IC50 in data set [2] was determined as 10.9 nM. In the data set with influenza virus, the EC50 stood at 2.1 nM.
The corresponding values for `O=C1c2c(O)c(=O)ccn2N([C@@H]2c3ccccc3SCc3cccc(F)c32)[C@@H]2CC3(CCN12)CC3` [III-48] are 3.49 nM and 3.57 nM.
On the same counts, the results for `C[C@@H]1CC[C@@H]2N(C1)C(=O)c1c(O)c(=O)ccn1N2[C@H]1c2ccc(F)cc2CSc2ccccc21` [III-58] are 2.65 nM and 3.13 nM.

As usually defined, the bioavailability is dose-corrected exposure relative to a reference, in per cent.

The record behind these values is US10633397B2, “Substituted polycyclic pyridone derivatives and prodrugs thereof” (priority 2015, dated 2020).
